Measured values from patent US12077503B2, “Substituted cyclic amides and their use as herbicides” (FMC CORPORATION, priority 2015, dated 2024).

How the values were obtained:
Assay type in all cases: in vivo
[1] = test system: barnyardgrass (Echinochloa crus-galli); test: Test G Pre-Emergence Protocol; details: Echinochloa crus-galli, pre-emergence, 312 h, evaluated after 13 days
Method in brief: (§1)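 Pots of seeds in standard soil were grown for one day in a glasshouse (24/16 °C day/night, 14 h light, 65% humidity), then sprayed with compound in acetone/water 50:50 with 0.5% Tween 20 at 15.625, 62.5 or 250 g/ha. Damage was scored after 13 days on a 0 (none) to 100 (total) scale.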

corn (Zea mays) [2] = test: Test G Pre-Emergence Protocol; details: Zea mays, pre-emergence, 312 h, evaluated after 13 days
Method in brief: as §1

[3] = test system: giant foxtail (Setaria faberi); test: Test G Pre-Emergence Protocol; details: Setaria faberi, pre-emergence, 312 h, evaluated after 13 days
Method in brief: as §1

[4] = test system: ivy-leaved morning glory (Ipomoea hederacea); test: Test G Pre-Emergence Protocol; details: Ipomoea, pre-emergence, 312 h, evaluated after 13 days
Method in brief: as §1

[5] = test system: redroot pigweed (Amaranthus retroflexus); test: Test G Pre-Emergence Protocol; details: Amaranthus retroflexus, pre-emergence, 312 h, evaluated after 13 days
Method in brief: as §1

[6] = test system: velvetleaf (Abutilon theophrasti); test: Test G Pre-Emergence Protocol; details: Abutilon theophrasti, pre-emergence, 312 h, evaluated after 13 days
Method in brief: as §1

[7] = test system: barnyardgrass (Echinochloa crus-galli); test: Test G Post-Emergence Protocol; details: Echinochloa crus-galli, post-emergence, 312 h
Method in brief: (§2)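 Sow in soil; grow 8 d (24/16 °C, 14 h light, 65% humidity); spray 15.625/62.5/250 g/ha in acetone:water 50:50 + 0.5% Tween 20; grow on, water twice daily; score damage 0–100 at 13 d.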

corn (Zea mays) [8] = test: Test G Post-Emergence Protocol; details: Zea mays, post-emergence, 312 h
Method in brief: as §2

[9] = test system: giant foxtail (Setaria faberi); test: Test G Post-Emergence Protocol; details: Setaria faberi, post-emergence, 312 h
Method in brief: as §2

[10] = test system: ivy-leaved morning glory (Ipomoea hederacea); test: Test G Post-Emergence Protocol; details: Ipomoea, post-emergence, 312 h
Method in brief: as §2

[11] = test system: redroot pigweed (Amaranthus retroflexus); test: Test G Post-Emergence Protocol; details: Amaranthus retroflexus, post-emergence, 312 h
Method in brief: as §2

[12] = test system: velvetleaf (Abutilon theophrasti); test: Test G Post-Emergence Protocol; details: Abutilon theophrasti, post-emergence, 312 h
Method in brief: as §2

## Cc1ccc(NC(=O)[C@@H]2C(=O)N(C)C[C@H]2c2ccc(C(F)(F)F)cc2)c(F)c1 (racemic) [Compound 1591]
[1]; 15.625 g ai/ha, read-out: Barnyard grass damage rating (100=total damage to plant; 0=no damage to plant)
  pest or weed control at 15.625 g/ha: 0%
[1]; 62.5 g ai/ha, 100=total damage to plant, 0=no damage to plant, read-out: plant damage rating, Barnyardgrass
  pest or weed control at 62.5 g/ha: 50%
[1]; 250 g ai/ha, read-out: Barnyardgrass damage rating (100=total damage to plant; 0=no damage to plant)
  pest or weed control at 250 g/ha: 70%
Corn (Zea mays) [2]; 15.625 g ai/ha, read-out: Corn damage rating (100=total damage to plant; 0=no damage to plant)
  plant injury at 15.625 g/ha: 0%
Corn (Zea mays) [2]; 62.5 g ai/ha, 100=total damage to plant, 0=no damage to plant, read-out: plant damage rating, Corn
  plant injury at 62.5 g/ha: 10%
Corn (Zea mays) [2]; 250 g ai/ha, read-out: Corn damage rating (100=total damage to plant; 0=no damage to plant)
  plant injury at 250 g/ha: 0%
[3]; 15.625 g ai/ha, read-out: Foxtail, Giant damage rating (100=total damage to plant; 0=no damage to plant)
  pest or weed control at 15.625 g/ha: 0%
[3]; 62.5 g ai/ha, 100=total damage to plant, 0=no damage to plant, read-out: plant damage rating, Foxtail, Giant
  pest or weed control at 62.5 g/ha: 70%
[3]; 250 g ai/ha, read-out: Foxtail, Giant damage rating (100=total damage to plant; 0=no damage to plant)
  pest or weed control at 250 g/ha: 80%
[4]; 15.625 g ai/ha, read-out: Morning-glory, Ivy-leaved damage rating (100=total damage to plant; 0=no damage to plant)
  pest or weed control at 15.625 g/ha: 0%
[4]; 62.5 g ai/ha, 100=total damage to plant, 0=no damage to plant, read-out: plant damage rating, Morningglory, Ivy-leaved
  pest or weed control at 62.5 g/ha: 0%
[4]; 250 g ai/ha, read-out: Morningglory, Ivy-leaved damage rating (100=total damage to plant; 0=no damage to plant)
  pest or weed control at 250 g/ha: 0%
[5]; 15.625 g ai/ha, read-out: Pigweed, Redroot damage rating (100=total damage to plant; 0=no damage to plant)
  pest or weed control at 15.625 g/ha: 0%
[5]; 62.5 g ai/ha, 100=total damage to plant, 0=no damage to plant, read-out: plant damage rating, Pigweed, Redroot
  pest or weed control at 62.5 g/ha: 0%
[5]; 250 g ai/ha, read-out: Pigweed, Redroot damage rating (100=total damage to plant; 0=no damage to plant)
  pest or weed control at 250 g/ha: 0%
[6]; 15.625 g ai/ha, read-out: Velvetleaf damage rating (100=total damage to plant; 0=no damage to plant)
  pest or weed control at 15.625 g/ha: 0%
[6]; 62.5 g ai/ha, 100=total damage to plant, 0=no damage to plant, read-out: plant damage rating, Velvetleaf
  pest or weed control at 62.5 g/ha: 0%
[6]; 250 g ai/ha, read-out: Velvetleaf damage rating (100=total damage to plant; 0=no damage to plant)
  pest or weed control at 250 g/ha: 10%
[7]; 15.625 g ai/ha, evaluated after 13 days (100=total damage to plant; 0=no damage to plant), read-out: Barnyardgrass damage rating
  pest or weed control at 15.625 g/ha: 0%
[7]; 62.5 g ai/ha, evaluated after 13 days, read-out: Barnyardgrass damage rating (100=total damage to plant; 0=no damage to plant)
  pest or weed control at 62.5 g/ha: 30%
[7]; 250 g ai/ha, evaluated after 13 days, read-out: damage to plant, Barnyardgrass (100=total damage to plant; 0=no damage to plant)
  pest or weed control at 250 g/ha: 50%
Corn (Zea mays) [8]; 15.625 g ai/ha, evaluated after 13 days (100=total damage to plant; 0=no damage to plant), read-out: Corn damage rating
  plant injury at 15.625 g/ha: 0%
Corn (Zea mays) [8]; 62.5 g ai/ha, evaluated after 13 days, read-out: Corn damage rating (100=total damage to plant; 0=no damage to plant)
  plant injury at 62.5 g/ha: 0%
Corn (Zea mays) [8]; 250 g ai/ha, evaluated after 13 days, read-out: damage to plant, Corn (100=total damage to plant; 0=no damage to plant)
  plant injury at 250 g/ha: 10%
[9]; 15.625 g ai/ha, evaluated after 13 days (100=total damage to plant; 0=no damage to plant), read-out: Foxtail, Giant damage rating
  pest or weed control at 15.625 g/ha: 0%
[9]; 62.5 g ai/ha, evaluated after 13 days, read-out: Foxtail, Giant damage rating (100=total damage to plant; 0=no damage to plant)
  pest or weed control at 62.5 g/ha: 70%
[9]; 250 g ai/ha, evaluated after 13 days, read-out: damage to plant, Foxtail, Giant (100=total damage to plant; 0=no damage to plant)
  pest or weed control at 250 g/ha: 80%
[10]; 15.625 g ai/ha, evaluated after 13 days (100=total damage to plant; 0=no damage to plant), read-out: Morningglory, Ivy-leaved damage rating
  pest or weed control at 15.625 g/ha: 0%
[10]; 62.5 g ai/ha, evaluated after 13 days, read-out: Morningglory, Ivy-leaved damage rating (100=total damage to plant; 0=no damage to plant)
  pest or weed control at 62.5 g/ha: 10%
[10]; 250 g ai/ha, evaluated after 13 days, read-out: damage to plant, Morningglory, Ivy-leaved (100=total damage to plant; 0=no damage to plant)
  pest or weed control at 250 g/ha: 10%
[11]; 15.625 g ai/ha, evaluated after 13 days (100=total damage to plant; 0=no damage to plant), read-out: Pigweed, Redroot damage rating
  pest or weed control at 15.625 g/ha: 0%
[11]; 62.5 g ai/ha, evaluated after 13 days, read-out: Pigweed, Redroot damage rating (100=total damage to plant; 0=no damage to plant)
  pest or weed control at 62.5 g/ha: 10%
[11]; 250 g ai/ha, evaluated after 13 days, read-out: damage to plant, Pigweed, Redroot (100=total damage to plant; 0=no damage to plant)
  pest or weed control at 250 g/ha: 10%
[12]; 15.625 g ai/ha, evaluated after 13 days (100=total damage to plant; 0=no damage to plant), read-out: Velvetleaf damage rating
  pest or weed control at 15.625 g/ha: 0%
[12]; 62.5 g ai/ha, evaluated after 13 days, read-out: Velvetleaf damage rating (100=total damage to plant; 0=no damage to plant)
  pest or weed control at 62.5 g/ha: 0%
[12]; 250 g ai/ha, evaluated after 13 days, read-out: damage to plant, Velvetleaf (100=total damage to plant; 0=no damage to plant)
  pest or weed control at 250 g/ha: 10%
